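Growth conditions: 96-well plates. Treatment: test compound, 48 hours, 5 concentrations. Analysis: linear interpolation between bracketing concentrations; unreached endpoints set to highest concentration. GI50 marks 50% less growth. TGI: concentration producing complete growth inhibition.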
Columns and labels:
Assay in all cases: growth of human tumour cells (NCI), 48 h
T-47D breast = tested on: T-47D breast
HCT-15 colon = tested on: HCT-15 colon
M14 melanoma = tested on: M14 melanoma
HCT-116 colon = tested on: HCT-116 colon
NCI-H460 lung = tested on: NCI-H460 lung
LOX IMVI melanoma = tested on: LOX IMVI melanoma
SK-OV-3 ovarian = tested on: SK-OV-3 ovarian
HCC-2998 colon = tested on: HCC-2998 colon
K-562 leukemia = tested on: K-562 leukemia
PC-3 prostate = tested on: PC-3 prostate
OVCAR-5 ovarian = tested on: OVCAR-5 ovarian
SF-268 CNS = tested on: SF-268 CNS
U251 CNS = tested on: U251 CNS
UACC-62 melanoma = tested on: UACC-62 melanoma
RPMI-8226 leukemia = tested on: RPMI-8226 leukemia
OVCAR-3 ovarian = tested on: OVCAR-3 ovarian
SF-539 CNS = tested on: SF-539 CNS
MCF7 breast = tested on: MCF7 breast
HL-60(TB) leukemia = tested on: HL-60(TB) leukemia
SN12C renal = tested on: SN12C renal
CCRF-CEM leukemia = tested on: CCRF-CEM leukemia
RXF 393 renal = tested on: RXF 393 renal
DU-145 prostate = tested on: DU-145 prostate
KM12 colon = tested on: KM12 colon
OVCAR-4 ovarian = tested on: OVCAR-4 ovarian
HS 578T breast = tested on: HS 578T breast
A498 renal = tested on: A498 renal
SK-MEL-2 melanoma = tested on: SK-MEL-2 melanoma
UACC-257 melanoma = tested on: UACC-257 melanoma
TK-10 renal = tested on: TK-10 renal
SNB-75 CNS = tested on: SNB-75 CNS
SNB-19 CNS = tested on: SNB-19 CNS
SF-295 CNS = tested on: SF-295 CNS
MDA-MB-231 breast = tested on: MDA-MB-231 breast
SK-MEL-28 melanoma = tested on: SK-MEL-28 melanoma
CAKI-1 renal = tested on: CAKI-1 renal
EKVX NSCLC = tested on: EKVX NSCLC
786-0 renal = tested on: 786-0 renal
BT-549 breast = tested on: BT-549 breast
SW-620 colon = tested on: SW-620 colon
ACHN renal = tested on: ACHN renal
MOLT-4 leukemia = tested on: MOLT-4 leukemia
NCI-H522 lung = tested on: NCI-H522 lung
OVCAR-8 ovarian = tested on: OVCAR-8 ovarian
HOP-62 NSCLC = tested on: HOP-62 NSCLC
A549 NSCLC = tested on: A549 NSCLC
MDA-MB-435 = tested on: MDA-MB-435
SK-MEL-5 melanoma = tested on: SK-MEL-5 melanoma
COLO 205 colon = tested on: COLO 205 colon
NCI/ADR-RES ovarian = tested on: NCI/ADR-RES ovarian
NCI-H226 lung = tested on: NCI-H226 lung
NCI-H23 lung = tested on: NCI-H23 lung

Question: What does the source list for `CCOc1cc(F)c([N+](=O)[O-])cc1[N+](=O)[O-]`?
Answer: GI50 (T-47D breast): 3.31 µM; TGI (T-47D breast): 14.7 µM; GI50 (HCT-15 colon): 2.71 µM; TGI (HCT-15 colon): 9.22 µM; GI50 (M14 melanoma): 1.67 µM; TGI (M14 melanoma): 3.03 µM; GI50 (HCT-116 colon): 1.64 µM; TGI (HCT-116 colon): 2.99 µM; GI50 (NCI-H460 lung): 2.38 µM; TGI (NCI-H460 lung): 5.35 µM; GI50 (LOX IMVI melanoma): 1.66 µM; TGI (LOX IMVI melanoma): 3.02 µM; GI50 (SK-OV-3 ovarian): 14.5 µM; TGI (SK-OV-3 ovarian): 27.6 µM; GI50 (HCC-2998 colon): 1.87 µM; TGI (HCC-2998 colon): 3.31 µM; GI50 (K-562 leukemia): 3.01 µM; TGI (K-562 leukemia): 57 µM; GI50 (PC-3 prostate): 4.63 µM; TGI (PC-3 prostate): 18 µM; GI50 (OVCAR-5 ovarian): 1.8 µM; TGI (OVCAR-5 ovarian): 4.34 µM; GI50 (SF-268 CNS): 2.56 µM; TGI (SF-268 CNS): 6.46 µM; GI50 (U251 CNS): 1.69 µM; TGI (U251 CNS): 3.24 µM; GI50 (UACC-62 melanoma): 1.73 µM; TGI (UACC-62 melanoma): 3.75 µM; GI50 (RPMI-8226 leukemia): 3.43 µM; TGI (RPMI-8226 leukemia): 11.2 µM; GI50 (OVCAR-3 ovarian): 1.83 µM; TGI (OVCAR-3 ovarian): 3.23 µM; GI50 (SF-539 CNS): 1.85 µM; TGI (SF-539 CNS): 3.85 µM; GI50 (MCF7 breast): 0.886 µM; TGI (MCF7 breast): 17.3 µM; GI50 (HL-60(TB) leukemia): 1.77 µM; TGI (HL-60(TB) leukemia): 4.81 µM; GI50 (SN12C renal): 2 µM; TGI (SN12C renal): 4.32 µM; GI50 (CCRF-CEM leukemia): 2.68 µM; TGI (CCRF-CEM leukemia): 6.4 µM; GI50 (RXF 393 renal): 1.89 µM; TGI (RXF 393 renal): 3.37 µM; GI50 (DU-145 prostate): 1.99 µM; TGI (DU-145 prostate): 4.04 µM; GI50 (KM12 colon): 1.81 µM; TGI (KM12 colon): 3.49 µM; GI50 (OVCAR-4 ovarian): 1.92 µM; TGI (OVCAR-4 ovarian): 3.48 µM; GI50 (HS 578T breast): 2.48 µM; TGI (HS 578T breast): 7.97 µM; GI50 (A498 renal): 5.81 µM; TGI (A498 renal): 18.2 µM; GI50 (SK-MEL-2 melanoma): 1.89 µM; TGI (SK-MEL-2 melanoma): 4.4 µM; GI50 (UACC-257 melanoma): 1.6 µM; TGI (UACC-257 melanoma): 3.23 µM; GI50 (TK-10 renal): 2.91 µM; TGI (TK-10 renal): 10.1 µM; GI50 (SNB-75 CNS): 3.58 µM; TGI (SNB-75 CNS): 14.1 µM; GI50 (SNB-19 CNS): 3.82 µM; TGI (SNB-19 CNS): 13.3 µM; GI50 (SF-295 CNS): 3.19 µM; TGI (SF-295 CNS): 12.8 µM; GI50 (MDA-MB-231 breast): 1.99 µM; TGI (MDA-MB-231 breast): 4.39 µM; GI50 (SK-MEL-28 melanoma): 2.5 µM; TGI (SK-MEL-28 melanoma): 6.12 µM; GI50 (CAKI-1 renal): 1.19 µM; TGI (CAKI-1 renal): 2.42 µM; GI50 (EKVX NSCLC): 1.85 µM; TGI (EKVX NSCLC): 4.5 µM; GI50 (786-0 renal): 3.77 µM; TGI (786-0 renal): 13.9 µM; GI50 (BT-549 breast): 3.12 µM; TGI (BT-549 breast): 11.2 µM; GI50 (SW-620 colon): 1.78 µM; TGI (SW-620 colon): 3.3 µM; GI50 (ACHN renal): 2.02 µM; TGI (ACHN renal): 4.81 µM; GI50 (MOLT-4 leukemia): 2.85 µM; TGI (MOLT-4 leukemia): 8.02 µM; GI50 (NCI-H522 lung): 1.5 µM; TGI (NCI-H522 lung): 3.24 µM; GI50 (OVCAR-8 ovarian): 2.57 µM; TGI (OVCAR-8 ovarian): 6.64 µM; GI50 (HOP-62 NSCLC): 9.35 µM; TGI (HOP-62 NSCLC): 21.6 µM; GI50 (A549 NSCLC): 3.68 µM; TGI (A549 NSCLC): 14.9 µM; GI50 (MDA-MB-435): 2.59 µM; TGI (MDA-MB-435): 7.31 µM; GI50 (SK-MEL-5 melanoma): 2.99 µM; TGI (SK-MEL-5 melanoma): 8.4 µM; GI50 (COLO 205 colon): 2.03 µM; TGI (COLO 205 colon): 3.88 µM; GI50 (NCI/ADR-RES ovarian): 2.88 µM; TGI (NCI/ADR-RES ovarian): 8 µM; GI50 (NCI-H226 lung): 2.81 µM; TGI (NCI-H226 lung): 8.48 µM; GI50 (NCI-H23 lung): 2.42 µM; TGI (NCI-H23 lung): 5.56 µM
